Source: patent US20200199102A1, “COMPOUNDS THAT PARTICIPATE IN COOPERATIVE BINDING AND USES THEREOF” (Revolution Medicines, Inc., priority 2017, published 2020)
Where a SMILES comes first, the peptide text is derived from it. [ ]: non-standard residue; d: D form. MeBmt = C/C=C/C[C@@H](C)[C@@H](O)[C@H](NC)C(=O)O; NMeF = CN[C@@H](Cc1ccccc1)C(=O)O; NMeI = CC[C@H](C)[C@H](NC)C(=O)O; NMeT = CN[C@H](C(=O)O)[C@@H](C)O; NMeL = CN[C@@H](CC(C)C)C(=O)O; NMeNle = CCCC[C@H](NC)C(=O)O; Tle = CC(C)(C)[C@H](N)C(=O)O; NMeV = CN[C@H](C(=O)O)C(C)C; NMeA = CN[C@@H](C)C(=O)O; Abu = CC[C@H](N)C(=O)O; Sar = CNCC(=O)O

Columns and labels:
Cyclophilin A = molecular target: T1, Cyclophilin A (Homo sapiens, UniProt P62937); experiment: AlphaLISA inhibition of binding of biotinylated Cyclosporin A to FLAG tagged Cyclophilin A; settings: for % signal: AlphaLISA signal; for % signal / % inhibition of CsA binding to Cyclophilin A: test concentration not given; for IC50: read-out: IC50 value of CsA binding to Cyclophilin A
T1 construct: made in house
T1 sequence (P62937 whole entry, species assumed): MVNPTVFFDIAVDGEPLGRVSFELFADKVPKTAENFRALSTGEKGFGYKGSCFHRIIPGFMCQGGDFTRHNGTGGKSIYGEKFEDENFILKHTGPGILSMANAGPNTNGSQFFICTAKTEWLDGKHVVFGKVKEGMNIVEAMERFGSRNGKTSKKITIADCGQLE
Outline: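 Inhibition of biotin-CsA binding to FLAG-tagged Cyclophilin A read by AlphaLISA (ex 680, em 615 nm). Working stocks were 6 nM biotinylated CsA and 25 nM FLAG-CypA; beads and compound were combined first for 30 min, then protein added for 60 min, all at room temperature in the dark, with DMSO and cyclosporin A controls.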

HeLa-CyclophilinA cells = experiment: Biosensor cell permeability assay (cyclophilin destabilizing mutant), HeLa-CyclophilinA cells; type: cell-based; settings: 72 hrs
Procedure: Cell permeability of compounds can be determined using the following protocol.
This protocol utilizes a modified FKBP or cyclophilin destabilizing mutant to determine the bioactivity of FKBP binding compounds or cyclophilin binding compounds in whole cell assay.
DMEM, DMEM without Phenol Red, 10% FBS, 1× Sodium Pyruvate, 1× Glutamax. Add 125 μl of media with compound per well.
Plate HeLa-FKBP12 cells (for FKBP binding compounds) or HeLa-CyclophilinA cells (for cyclophilin binding compounds) and seed overnight at 5 k/well (approximately ˜18 hrs.). Using a multi-channel pipet, take out the old media and add ˜125 ul of new media with compounds. Compounds are diluted using DMEM without Phenol Red, 10% FBS, 1× Sodium Pyruvate, 1× Glutamax. Add 125 μL of media with compound per well. Cells are treated with compounds at concentration: 30, 10, 3.33, 1.11, 0.37, 0.12, 0.04 and 0.013 uM. Time points are taken at 72 hrs and plate read using plate reader with excitation/emission: 575/620.
Cell binding/permeability is calculated in fold-change (Total RFU of treated samples/total RFU of DMSO treated samples or total RFU above background (Total RFU minus total RFU of DMSO treated samples).

FKBP12 [1] = molecular target: T2, FKBP12 (Homo sapiens, UniProt P62942); experiment: AlphaLISA inhibition of binding of biotinylated FK506 to FLAG tagged FKBP12; parameters: made in house; settings: read-out: Binding affinity to FKBP12 (by displacement of FK506)
T2 sequence (P62942 whole entry, species assumed): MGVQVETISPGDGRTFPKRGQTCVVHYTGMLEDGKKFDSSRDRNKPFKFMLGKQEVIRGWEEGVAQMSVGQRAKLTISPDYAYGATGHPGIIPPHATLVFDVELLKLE
Source text: The binding of compounds of the invention to FKBP12 can be determined using the following protocol.
This protocol utilizes Perkin Elmers AlphaLISA technology platform to detect FKBP binders by measuring the inhibition of binding of biotinylated FK506 to FLAG tagged FKBP12.
10×TBST Buffer (Boston BioProducts IBB-181), Biotinylated FK506 (in-house), FLAG tagged FKBP (in-house); anti-FLAG Donor beads (PerkinElmer AS103) and Streptavidin Acceptor beads (PerkinElmer AL125); Compounds in DMSO (in-house), FK506.
Add 20 uL of 12.5 nM FKBP-FLAG working stock to each well of the 96-well plate. Add 1 uL of test compound (100% DMSO) to each well of the plate using the Janus MTD head and P20 tips (except control wells). Add 1 uL of DMSO to negative control wells and 1 uL of 50 uM FK506 solution to positive control wells. In the dark, add 20 uL of combined Donor/Acceptor beads to each well. Incubate in the dark for 30 minutes at room temperature. In the dark, add 10 uL of 5 nM biotinylated FK506 working stock to each well. Incubate in the dark for 60 minutes at room temperature. Protect plate from light until reading on Biotek Synergy2 Plate Reader; Alphalisa 96-well protocol (680 excitation/615 emission).

FKBP12 [2] = molecular target: T2, FKBP12; experiment: SPR binding of compound (analyte) to immobilized FKBP12; settings: read-out: SPR affinity to FKBP12: KD; 25° C., Table 7
Procedure: This protocol utilizes Surface Plasmon Resonance (SPR) as a method to determine kinetics (KD, Ka, Kd) for the binding of compound (analyte) to immobilized FKBP12 (ligand).
Compound in 100% DMSO (in-house), 10×HBS-P+ buffer (GE Healthcare BR-1006-71), Assay buffer (1×HBS-P+ buffer, 1% DMSO), 12×HIS tagged FKBP12 (in-house).
Experiments are performed at 25° C. Stock solution of 12×HIS tagged FKBP12 is diluted to 100 nM in assay buffer (1% DMSO final). Approximately 500-600 RU of FKBP12 is immobilized on one of two flow cells of an activated NTA chip. The second flow cell is not activated as a reference for non-specific interaction of the analyte to the sensor chip. Various concentrations of compound (1 nM-1 μM range), serially diluted into the same assay buffer (1% DMSO final), are injected onto the FKBP12 surface and reference surface at a flow rate of 10 μl/min. The surface is regenerated between analyte injections with 350 mM EDTA.
The BiaEvaluation software program is used for data fitting. All data is reference subtracted against both the reference flow cell and a buffer injection. For kinetic analyses, data is locally fit to a 1:1 interaction model.
Experiments are performed at 25° C. Stock solution of 12×HIS tagged FKBP12 is diluted to 100 nM in assay buffer (1% DMSO final). Approximately 500-600 RU of FKBP12 is immobilized on one of two flow cells of an activated NTA chip. The second flow cell is not activated as a reference for non-specific interaction of the analyte to the sensor chip.

Row | Structure (SMILES) | % signal (Cyclophilin A) [%] | IC50 (Cyclophilin A) [nM] | % inhibition of CsA binding to Cyclophilin A (Cyclophilin A) [%] | IC50 (HeLa-CyclophilinA cells) [nM] | IC50 (FKBP12 [1]) [nM] | Kd (FKBP12 [2]) [nM]
1 | C/C=C/C[C@@H](C)[C@@H](O)[C@H]1C(=O)N[C@@H](CC)C(=O)N(C)CC(=O)N(C)[C@@H](CCCC)C(=O)N[C@@H](C(C)C)C(=O)N(C)[C@@H](CC(C)C)C(=O)N[C@@H](C)C(=O)N[C@H](C)C(=O)N(C)[C@@H](CC(C)C)C(=O)N(C)[C@@H](CC(C)C)C(=O)N(C)[C@@H](C(C)C)C(=O)N1C [Compound C43] | 0.29 | < 2000 | 99.71 | < 3000 |  | 
2 | C/C=C/C[C@@H](C)[C@@H](O)[C@H]1C(=O)N[C@@H](CC)C(=O)N(C)CC(=O)N(C)[C@H](C)C(=O)N[C@@H](C(C)C)C(=O)N(C)[C@@H](CC(C)C)C(=O)N[C@@H](C)C(=O)N[C@H](C)C(=O)N(C)[C@@H](CC(C)C)C(=O)N(C)[C@@H](CC(C)C)C(=O)N(C)[C@@H](C(C)C)C(=O)N1C [Compound C35] | 0.89 | < 2000 | 99.11 | > 3000 |  | 
3 | C/C=C/C[C@@H](C)[C@@H](O)[C@H]1C(=O)N[C@@H](CC)C(=O)N(C)CC(=O)N(C)[C@@H](C)C(=O)N[C@@H](C(C)C)C(=O)N(C)[C@@H](CC(C)C)C(=O)N[C@@H](C)C(=O)N[C@H](C)C(=O)N(C)[C@@H](CC(C)C)C(=O)N(C)[C@@H](CC(C)C)C(=O)N(C)[C@@H](C(C)C)C(=O)N1C [Compound C34] | −0.01 | < 2000 | 100.01 | < 3000 |  | 
4 | C/C=C/C[C@@H](C)[C@@H](O)[C@H]1C(=O)N[C@@H](CC)C(=O)N(C)CC(=O)N(C)[C@@H](Cc2ccc(O)cc2)C(=O)N[C@@H](C(C)C)C(=O)N(C)[C@@H](CC(C)C)C(=O)N[C@@H](C)C(=O)N[C@H](C)C(=O)N(C)[C@@H](CC(C)C)C(=O)N(C)[C@@H](CC(C)C)C(=O)N(C)[C@@H](C(C)C)C(=O)N1C [Compound C39] | 3.78 | < 2000 | 96.22 | < 3000 |  | 
5 | C/C=C/C[C@@H](C)[C@@H](O)[C@H]1C(=O)N[C@@H](CC)C(=O)N(C)CC(=O)N(C)[C@@H]([C@@H](C)CC)C(=O)N[C@@H](C(C)C)C(=O)N(C)[C@@H](CC(C)C)C(=O)N[C@@H](C)C(=O)N[C@H](C)C(=O)N(C)[C@@H](CC(C)C)C(=O)N(C)[C@@H](CC(C)C)C(=O)N(C)[C@@H](C(C)C)C(=O)N1C [Compound C33] | −0.08 | < 2000 | 100.08 | < 3000 |  | 
6 | C/C=C/C[C@@H](C)[C@@H](O)[C@H]1C(=O)N[C@@H](CC)C(=O)N(C)CC(=O)N(C)CC(=O)N[C@@H](C(C)C)C(=O)N(C)[C@@H](CC(C)C)C(=O)N[C@@H](C)C(=O)N[C@H](C)C(=O)N(C)[C@@H](CC(C)C)C(=O)N(C)[C@@H](CC(C)C)C(=O)N(C)[C@@H](C(C)C)C(=O)N1C [Compound C37] | 1.56 | < 2000 | 98.44 | > 3000 |  | 
7 | C/C=C/C[C@@H](C)[C@@H](O)[C@H]1C(=O)N[C@@H](CC)C(=O)N(C)CC(=O)N(C)[C@H](C(C)C)C(=O)N[C@@H](C(C)C)C(=O)N(C)[C@@H](CC(C)C)C(=O)N[C@@H](C)C(=O)N[C@H](C)C(=O)N(C)[C@@H](CC(C)C)C(=O)N(C)[C@@H](CC(C)C)C(=O)N(C)[C@@H](C(C)C)C(=O)N1C [Compound C42] | 1.26 | < 2000 | 98.74 | > 3000 |  | 
8 | CCC(Cc1ccccc1)C1C=CCC=CCC(C)C(O)C(C)C2CCC(C)C(O)(CC(=O)N3CCCCC3C(=O)O1)O2 (centres unmarked) [Compound F1] |  |  |  |  | 355 | 71.5
9 | C/C=C/C[C@@H](C)[C@@H](O)[C@H]1C(=O)N[C@@H](CC)C(=O)N(C)CC(=O)N(C)[C@@H](CCC)C(=O)N[C@@H](C(C)C)C(=O)N(C)[C@@H](CC(C)C)C(=O)N[C@@H](C)C(=O)N[C@H](C)C(=O)N(C)[C@@H](CC(C)C)C(=O)N(C)[C@@H](CC(C)C)C(=O)N(C)[C@@H](C(C)C)C(=O)N1C [Compound C44] | −0.07 | < 2000 | 100.07 | < 3000 |  | 
10 | C/C=C/C[C@@H](C)[C@@H](O)[C@H]1C(=O)N[C@@H](CC)C(=O)N(C)CC(=O)N(C)[C@@H]([C@@H](C)O)C(=O)N[C@@H](C(C)C)C(=O)N(C)[C@@H](CC(C)C)C(=O)N[C@@H](C)C(=O)N[C@H](C)C(=O)N(C)[C@@H](CC(C)C)C(=O)N(C)[C@@H](CC(C)C)C(=O)N(C)[C@@H](C(C)C)C(=O)N1C [Compound C38] | 1.57 | < 2000 | 98.43 | < 3000 |  | 
11 | C/C=C/C[C@@H](C)[C@@H](O)[C@H]1C(=O)N[C@@H](CC)C(=O)N(C)CC(=O)N(C)[C@@H]([C@@H](C)CC)C(=O)N[C@@H](C(C)(C)C)C(=O)N(C)[C@@H](C)C(=O)N[C@@H](CC(C)C)C(=O)N[C@H](C)C(=O)N(C)[C@@H](CC(C)C)C(=O)N(C)[C@@H](CC(C)C)C(=O)N(C)[C@@H](C(C)C)C(=O)N1C [Compound C69] (cyclo([MeBmt][Abu][Sar][NMeI][Tle][NMeA]L[dA][NMeL][NMeL][NMeV])) | 0.03 | < 2000 | 99.97 |  |  | 
12 | C/C=C/C[C@@H](C)[C@@H](O)[C@H]1C(=O)N[C@@H](CC)C(=O)N(C)CC(=O)N(C)[C@@H]([C@@H](C)O)C(=O)N[C@@H](C(C)C)C(=O)N(C)[C@@H](C)C(=O)N[C@@H](C)C(=O)N[C@H](C)C(=O)N(C)[C@@H](CC(C)C)C(=O)N(C)[C@@H](CC(C)C)C(=O)N(C)[C@@H](C(C)C)C(=O)N1C [Compound C7] (cyclo([MeBmt][Abu][Sar][NMeT]V[NMeA]A[dA][NMeL][NMeL][NMeV])) | 2.65 | < 2000 | 97.35 |  |  | 
13 | C/C=C/C[C@@H](C)[C@@H](O)[C@H]1C(=O)N[C@@H](CC)C(=O)N(C)CC(=O)N(C)[C@@H](Cc2ccccc2)C(=O)N[C@@H](C(C)C)C(=O)N(C)[C@@H](CC(C)C)C(=O)N[C@@H](CC(C)C)C(=O)N[C@H](C)C(=O)N(C)[C@@H](CC(C)C)C(=O)N(C)[C@@H](CC(C)C)C(=O)N(C)[C@@H](C(C)C)C(=O)N1C [Compound C48] (cyclo([MeBmt][Abu][Sar][NMeF]V[NMeL]L[dA][NMeL][NMeL][NMeV])) | 15.72 | < 2000 | 84.28 |  |  | 
14 | C/C=C/C[C@@H](C)[C@@H](O)[C@H]1C(=O)N[C@@H](CC)C(=O)N(C)CC(=O)N(C)[C@@H](CCCC)C(=O)N[C@@H](C(C)C)C(=O)N(C)[C@@H](C)C(=O)N[C@@H](CC(C)C)C(=O)N[C@H](C)C(=O)N(C)[C@@H](CC(C)C)C(=O)N(C)[C@@H](CC(C)C)C(=O)N(C)[C@@H](C(C)C)C(=O)N1C [Compound C92] (cyclo([Abu][Sar][NMeNle]V[NMeA]L[dA][NMeL][NMeL][NMeV][MeBmt])) | 9.00 | < 2000 | 91.00 |  |  | 
